Measured values published in publication PMC3021545, “Insulin Reduces Neuronal Excitability by Turning on GABAA Channels that Generate Tonic Current” (PLoS ONE, 2011).

Test system: T1, insulin-induced high-affinity extrasynaptic GABAA channels (α5, γ2 containing; α5βγ2) of CA1 pyramidal neurons
T1 construct: gene Gabra5
Settings: insulin-treated (1 nM) slices; -60 mV; ambient GABA; 20-22 °C; inverse agonist

CCOC(=O)c1ncn2c1[C@@H]1CCCN1C(=O)c1cc(OC)ccc1-2 [L655, 708]
% inhibition at 5 μM: 85±4%
